Experimental data: patent US20250302813A1, “RECOMBINANT METHIONINASE IN THE TREATMENT OF CANCER” (ANTICANCER INC, priority 2024, published 2025)
Read-outs that look alike come from different tables or passages of the source.

Assays:
[1] = system: HCT-116 human colon cancer cell line; test: Cell viability testing of HCT-116 cells (Cell Counting Kit-8, WST-8 reagent); assay type: cell-based; conditions: for IC50: Homo sapiens
Description: Cell culture: The HCT-116 human colon cancer cell line was acquired from the American Type Culture Collection (Manassas, VA, USA). The cells were grown in Dulbecco's […] medium (DMEM) with 10% fetal bovine serum and 100 IU/ml of penicillin/streptomycin.
Cell viability testing: HCT-116 cells were cultivated at subconfluence overnight in Dulbecco's modified Eagle's medium in 96-well plates (1.0×10^3 cells per well). The following day, HCT-116 cells were treated with concentrations of rMETase ranging from 0.125 to 8 U/ml or regorafenib ranging from 0.25 μM to 16 μM. Regorafenib was purchased from MedChemExpress (Monmouth Junction, NJ, USA). After 72 h of treatment, cell viability was assessed using the Cell Counting Kit-8 (Dojindo Laboratory, Kumamoto, Japan) with the WST-8 reagent.
ImageJ version 1.53 (National Institutes of Health, Bethesda, MD, USA) was applied to calculate IC50 values and sensitivity curves. After calculating the half-maximal inhibitory concentration (IC50) for rMETase and regorafenib, the […]. concentrations of both drugs were used to determine the synergistic efficacy of the combination of the drugs. Finally, the IC50 study was repeated for regorafenib on HCT-116 cells treated in combination with the IC50 concentration of rMETase to examine whether methionine restriction increased the efficacy of regorafenib. Each experiment was carried out in triplicate.
Statistics: GraphPad Prism 9.4.0 (GraphPad Software, Inc., San Diego, CA, USA) was used to conduct all statistical analyses. Tukey's multiple comparison test was performed for the parametric test of comparison between groups. All data are presented as the mean and standard deviation. The significance level was p≤0.05.

[2] = system: human colorectal cancer cell line; conditions: in vitro; cited from earlier work
[3] = patients; oral regorafenib; cited from earlier work

| IC50 of rMETase on HCT-116 cells ([1]; rMETase alone, 72 h treatment, WST-8) [U/ml] | IC50 ([1]; HCT-116, 72 h, addition of rMETase at 0.61 U/ml (its IC50), 72 h, WST-8, read-out: IC50 of regorafenib in combination with rMETase) [nM] | IC50 ([1]; HCT-116, 72 h, regorafenib alone, 72 h treatment, WST-8, read-out: IC50 of regorafenib on HCT-116 cells) [nM] | IC50 ([1]; HCT-116, regorafenib alone, read-out: IC50 of regorafenib alone on HCT-116 cells (printed in U/ml)) [nM] | Compound | Increase of intracellular S-adenosyl-L-methionine (SAM) level compared to the control [2] [%] | Time to appearance of toxicity after the start of treatment (severe skin rash, diarrhea, hypertension, fatigue) [3] [days] |
| --- | --- | --- | --- | --- | --- | --- |
| 0.61 |  |  |  | rMETase: recombinant methioninase produced by fermentation of recombinant Escherichia coli transformed with the methioninase gene from Pseudomonas putida |  |  |
|  | 1460 | 2200 | 2260 | CNC(=O)c1cc(Oc2ccc(NC(=O)Nc3ccc(Cl)c(C(F)(F)F)c3)c(F)c2)ccn1 [regorafenib, 4-[4-[[4-chloro-3-(trifluoromethyl)phenyl]carbamoylamino]-3-fluorophenoxy]-N-methylpyridine-2-carboxamide] | 34.5 | 3 to 4 |
